Measurements taken from paper PMC12584752, “Covalent fragment screening to inhibit the E3 ligase activity of bacterial NEL enzymes SspH1 and SspH2” (RSC Chemical Biology, 2025).
“Also recorded” adds a separate entry of the source.

What was measured:
Experiment in all cases: Intact LC-MS labelling selectivity
Type in all cases: binding
Conditions in all cases: dilution series 100–6.25 μM, 24 hours at 4 °C
DUB OTUD4 = target: T1, DUB OTUD4 (Homo sapiens, UniProt Q01804)
T1 construct: OTUD4 aa 1–156; His-tag (N, cleaved yes); made in house; host or cells: E. coli BL21
T1 sequence (Q01804 1-156): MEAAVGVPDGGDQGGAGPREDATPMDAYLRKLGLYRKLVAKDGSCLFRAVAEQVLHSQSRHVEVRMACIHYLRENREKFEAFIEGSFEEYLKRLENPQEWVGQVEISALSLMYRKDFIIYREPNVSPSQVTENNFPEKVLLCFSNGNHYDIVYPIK
Experimental: (§1) Fig. 3 Validation of HTC hit compounds by intact MS. Labelling heatmaps of dilution series (100–6.25 μM) of compounds 4–10 with (A) WT SspH1 and (B) C492K SspH1. Labelling heatmaps of dilution series of (C) compound 6 and (D) compound 7 with bacterial and human ubiquitin binding proteins. Recombinant proteins were incubated at either 1.0 or 0.5 μM with 50 μM fragments for 24 hours at 4 °C, before fragment labelling was analysed by intact LC-MS. Bacterial proteins are shown in bold and human proteins in italic fonts. (E)–(H) Kinetics analyses: time courses (0–12 hours) of compound labelling (100–1.56 μM) of SspH1 and SspH2 (0.5 μM) for (E) SspH1 and compound 7, and (F) SspH2 and compound 6. Measurements were performed in technical triplicates. Labelling percentages were plotted against time in GraphPad Prism v.10, and curves fitted separately for each replicate using one-phase association, with constraints Y0 = 0 and plateau = highest labelling percentage. Graphs for SspH1 and compound 6, and SspH2 and compound 7 are shown in Fig. S4A and B. Rate constants (kobs, as given by Graphpad Prism calculated K values) were plotted against fragment concentration in triplicate for (G) SspH1 and (H) SspH2. Straight lines were fitted with constraint Yintercept = 0. For SspH2 kinetics, 100 μM kobs was outside the linear range.
(§2) To mitigate the risk of selecting compounds which indiscriminately recognise ubiquitin binding proteins, we next performed preliminary selectivity studies with compounds 6 and 7 against human ubiquitin system proteins. […] In parallel, we tested the compounds against related NEL E3 ligases SspH2 and IpaH9.8. […] Our identification of dual SspH1 and SspH2 ligands is likely due to the high protein sequence similarity of SspH1 and SspH2 (60% for full length; 78% for NEL domains).
(§3) Dilution series experiments were performed as for 1st round screening. 1 μM OTUD4, OTUD5 or 0.5 μM HOIL, UbcH5A, SspH2, SspH1 C492K were incubated with 100–6.25 μM compounds for 24 hours at 4 °C, in 25 mM HEPES pH 7.5, 50 mM NaCl buffer. Intact protein LC-MS was performed as previously described.[40] The following deconvolution conditions were used for recombinant proteins studied in this work: […]

DUB OTUD5 = target: T2, DUB OTUD5 (Homo sapiens, UniProt Q96G74)
T2 construct: OTUD5 aa 172–351; His-tag (N, cleaved yes); made in house; host or cells: E. coli BL21
T2 sequence (Q96G74 172-351): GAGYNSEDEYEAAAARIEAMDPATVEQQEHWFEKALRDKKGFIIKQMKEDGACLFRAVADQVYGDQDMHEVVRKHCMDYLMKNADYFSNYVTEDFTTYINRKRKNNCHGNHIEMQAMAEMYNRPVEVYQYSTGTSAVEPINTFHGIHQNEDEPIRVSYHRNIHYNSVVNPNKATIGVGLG
Experimental: as §1, §2, §3

HECT-type E3 UBE3C = target: T3, HECT-type E3 UBE3C (Homo sapiens, UniProt Q15386)
T3 construct: UBE3C; 693–1083; His-tag (N, cleaved yes); made in house; host or cells: E. coli BL21
T3 sequence (Q15386 693-1083): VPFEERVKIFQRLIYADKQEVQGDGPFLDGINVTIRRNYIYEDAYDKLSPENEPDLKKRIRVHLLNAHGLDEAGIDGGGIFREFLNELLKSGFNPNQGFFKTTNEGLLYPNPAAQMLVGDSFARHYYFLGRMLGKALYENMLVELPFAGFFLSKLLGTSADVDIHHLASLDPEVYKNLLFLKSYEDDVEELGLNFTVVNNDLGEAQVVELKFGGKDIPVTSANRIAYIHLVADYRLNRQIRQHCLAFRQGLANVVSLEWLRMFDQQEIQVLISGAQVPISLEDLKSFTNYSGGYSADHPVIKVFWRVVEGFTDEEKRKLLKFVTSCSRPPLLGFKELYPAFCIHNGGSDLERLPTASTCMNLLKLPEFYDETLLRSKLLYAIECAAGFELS
Experimental: as §1, §2, §3

RBR-type E3 HOIL = target: T4, RBR-type E3 HOIL (Homo sapiens, UniProt Q9BYM8)
T4 construct: HOIL aa 1–510; His-tag (N, cleaved yes); made in house; host or cells: E. coli BL21
T4 sequence (Q9BYM8 1-510): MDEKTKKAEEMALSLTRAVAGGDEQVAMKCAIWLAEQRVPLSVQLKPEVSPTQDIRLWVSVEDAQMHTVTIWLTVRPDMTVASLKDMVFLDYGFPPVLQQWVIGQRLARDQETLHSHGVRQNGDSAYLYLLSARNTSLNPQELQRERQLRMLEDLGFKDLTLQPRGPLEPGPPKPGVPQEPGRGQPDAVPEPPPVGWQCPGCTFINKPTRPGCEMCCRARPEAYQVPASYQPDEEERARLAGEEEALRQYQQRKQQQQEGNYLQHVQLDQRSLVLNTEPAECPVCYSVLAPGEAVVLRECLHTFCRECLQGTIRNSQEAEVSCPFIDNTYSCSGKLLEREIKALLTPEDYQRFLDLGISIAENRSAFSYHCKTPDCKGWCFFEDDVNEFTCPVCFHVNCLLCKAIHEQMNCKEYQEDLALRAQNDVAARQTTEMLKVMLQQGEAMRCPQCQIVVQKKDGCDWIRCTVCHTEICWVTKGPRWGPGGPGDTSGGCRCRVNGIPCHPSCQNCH
Experimental: as §1, §2, §3

human E2 UbcH5A = target: T5, human E2 UbcH5A (Homo sapiens, UniProt P51668)
T5 construct: UbcH5A aa 1–147; His-tag (N, cleaved yes); made in house; host or cells: E. coli BL21
Experimental: as §1, §2, §3

T5 sequence (P51668 whole entry, the tested form may be a part): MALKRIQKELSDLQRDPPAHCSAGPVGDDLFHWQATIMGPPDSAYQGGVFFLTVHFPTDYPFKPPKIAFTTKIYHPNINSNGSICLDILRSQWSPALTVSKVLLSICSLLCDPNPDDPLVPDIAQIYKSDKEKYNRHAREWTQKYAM

Compound: Cl.O=C(CCl)N1CCC(n2c(-c3ccc(C(F)(F)F)cc3)nc3ccccc32)CC1 [compound 7]
- labelling of OTUD4 (DUB OTUD4): minimal or no labelling
- labelling of OTUD5 (DUB OTUD5): minimal or no labelling
- labelling of UBE3C (HECT-type E3 UBE3C): minimal or no labelling
- labelling of HOIL (RBR-type E3 HOIL): minimal or no labelling
- labelling of UbcH5A (human E2 UbcH5A): minimal or no labelling; also recorded: not labelled

Compound: Cc1cc(-c2nc3ccccc3n2C2CCN(C(=O)CCl)CC2)cc(C)c1O.Cl [compound 6]
- labelling of OTUD4 (DUB OTUD4): minimal or no labelling
- labelling of OTUD5 (DUB OTUD5): minimal or no labelling
- labelling of UBE3C (HECT-type E3 UBE3C): minimal or no labelling
- labelling of HOIL (RBR-type E3 HOIL): minimal or no labelling
- labelling of UbcH5A (human E2 UbcH5A): minimal or no labelling; also recorded: not labelled
